Assay results published in patent publication US10227606B2, “Method of increasing photosynthesis and yield of plants” (NATIONAL UNIVERSITY CORPORATION NAGOYA UNIVERSITY, priority 2013, dated 2019).

System: stomata (guard cells)
Test: Measurement of the stomatal aperture in isolated epidermal tissue
Assay type: cell-based, Arabidopsis thaliana
Details: 20 μM ABA, 2.5 hours under illumination; AHA2-transgenic and wild-type plants
Procedure: The stomatal aperture was measured according to a conventional method (27) with slight modifications. Epidermal tissue isolated from plants 3 to 4 weeks after planting overnight dark-adapted plants was incubated in basal buffer (5 mM MES-BTP, pH 6.5, 50 mM KCl, and 0.1 mM CaCl2). To inhibit light-induced stomatal opening using ABA, the epidermal tissue was incubated under blue light/red light (10 μmol m^−2s^−1 blue light (Stick-B-32; EYELA, Tokyo, Japan) superimposed on 50 μmol ^m−2s^−1 background red light (LED-R; EYELA)) for 2.5 hours at 24° C. in the presence or absence or 20 μM ABA. The stomatal aperture in the abaxial epidermis was measured using a microscope. Stomatal aperture was represented as the average and standard error (SEM) for 25 stomata. Results were confirmed by blind reassessment by another researcher.

CC1=CC(=O)CC(C)(C)[C@@]1(O)/C=C/C(C)=C\C(=O)O [ABA, abscisic acid]
effect of ABA on light-induced stomatal opening: inhibited
